Measurements published in publication PMC4207771, “Identification and Characterization of Novel Renal Sensory Receptors” (PLoS ONE, 2014).
Where two headings read alike, the source gives them in different places.

Tests used:
Olfr691 = target: T1, Olfr691 (Mus musculus, UniProt Q8VGW5); test: dual-luciferase (cAMP/CREB reporter) ligand screen, Olfr691 in HEK293T cells; format: cell-based; conditions: for Relative response (% of 4-pentenoate response) at 500 µM: HEK-293T, 4 h, 0.5 mM ligand, normalized to the response of Olfr691 to the strongest ligand; for EC50: Olfr691 co-expressed with RTP1S in HEK293T cells, 10 µM to 7.5 mM
T1 construct: Lucy (N); expressed in transfected cells; host or cells: HEK293T, co-transfected with RTP1S
T1 sequence (Q8VGW5 1-322): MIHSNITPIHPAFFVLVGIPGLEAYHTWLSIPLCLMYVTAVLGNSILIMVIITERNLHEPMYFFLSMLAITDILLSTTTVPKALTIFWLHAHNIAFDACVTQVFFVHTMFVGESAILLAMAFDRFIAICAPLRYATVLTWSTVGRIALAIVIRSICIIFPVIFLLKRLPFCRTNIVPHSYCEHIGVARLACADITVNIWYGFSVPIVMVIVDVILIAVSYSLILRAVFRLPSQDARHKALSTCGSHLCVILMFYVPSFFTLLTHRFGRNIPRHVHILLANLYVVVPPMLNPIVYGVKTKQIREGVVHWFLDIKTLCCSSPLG

Olfr545 = test: dual-luciferase (cAMP/CREB reporter) ligand screen, Olfr545 in HEK293T cells; format: cell-based, mouse; set-up: key to Olfr545 response in dual-luciferase assay: ‘+’ or ‘–‘ in each column indicates if the olfactory receptor responded or had no effect to that specific chemical; -: ‘+’ or ‘–‘ in each column indicates if the olfactory receptor responded or had no effect to that specific chemical
Olfr99 = test: dual-luciferase (cAMP/CREB reporter) ligand screen, Olfr99 in HEK293T cells; format: cell-based, mouse; set-up: key: ‘+’ or ‘–‘ in each column indicates if the olfactory receptor responded or had no effect to that specific chemical; -: ‘+’ or ‘–‘ in each column indicates if the olfactory receptor responded or had no effect to that specific chemical
Olfr31 = target: T2, Olfr31 (Mus musculus, UniProt Q3KPA7); test: dual-luciferase (cAMP/CREB reporter) ligand screen, Olfr31 in HEK293T cells; format: cell-based
T2 construct: expressed in transfected cells; host or cells: HEK293T, co-transfected with RTP1S
T2 sequence (Q3KPA7 1-317): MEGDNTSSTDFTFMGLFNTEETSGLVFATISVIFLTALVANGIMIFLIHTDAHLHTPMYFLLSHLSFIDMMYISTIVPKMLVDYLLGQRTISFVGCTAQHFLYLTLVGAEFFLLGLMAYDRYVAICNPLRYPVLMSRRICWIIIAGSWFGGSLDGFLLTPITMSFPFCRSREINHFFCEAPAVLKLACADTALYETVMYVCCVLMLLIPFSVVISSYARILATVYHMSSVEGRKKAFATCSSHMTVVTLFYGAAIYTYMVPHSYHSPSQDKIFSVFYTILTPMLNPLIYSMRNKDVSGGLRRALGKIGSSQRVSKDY

Olfr693 = test: dual-luciferase (cAMP/CREB reporter) ligand screen, Olfr693 in HEK293T cells; format: cell-based, mouse; set-up: key: ‘+’ or ‘–‘ in each column indicates if the olfactory receptor responded or had no effect to that specific chemical; -: ‘+’ or ‘–‘ in each column indicates if the olfactory receptor responded or had no effect to that specific chemical
[1] = chemicals tested individually, screened at 500uM (* also at 100uM)

| Structure (SMILES) | Olfr691 response in dual-luciferase assay (Olfr691; [1]) | Olfr545 response in dual-luciferase assay (Olfr545; [1]) | Olfr99 response in dual-luciferase assay (Olfr99; [1]) | Olfr31 response in dual-luciferase assay (Olfr31; [1]) | Olfr693 response in dual-luciferase assay (Olfr693; [1]) | Relative response (% of 4-pentenoate response) at 500 µM (Olfr691) [%] | EC50 (Olfr691) [mM] | Olfr691 response (in words) (Olfr691; luciferase assay, co-expressed with RTP1S, listed as 4-Pentenoate) | Olfr691 response (in words) (Olfr691; luciferase assay, co-expressed with RTP1S, listed as 4-pentenoate) | Olfr691 response in dual-luciferase assay (Olfr691) | Olfr545 response in dual-luciferase assay (Olfr545) | Olfr99 response in dual-luciferase assay (Olfr99) | Olfr31 response in dual-luciferase assay (Olfr31) | Olfr693 response in dual-luciferase assay (Olfr693) | Olfr691 response (in words) (Olfr691) |
| --- | --- | --- | --- | --- | --- | --- | --- | --- | --- | --- | --- | --- | --- | --- | --- |
| C=C(C)C1CC=C(C)C(=O)C1 (stereo not shown) [Carvone] | - | - | - | - | - |  |  |  |  |  |  |  |  |  |  |
| CCCC(=O)O [butyrate] | + | - | - | - | - | 55 ± 2.5 |  |  |  |  |  |  |  |  |  |
| O=c1[nH]c(=O)c2[nH]c(=O)[nH]c2[nH]1 [Uric acid] | - | - | - | - | - |  |  |  |  |  |  |  |  |  |  |
| O=C1CCCCCCCCCCCCCCCO1 [16-hexadecanolide] | - | - | - | - | - |  |  |  |  |  |  |  |  |  |  |
| CC(C)CCO [3-methyl-1-butanol] | - | - | - | - | - |  |  |  |  |  |  |  |  |  |  |
| CC(C)C(=O)O [isobutyrate] | + | - | - | - | - | 97 ± 10.8 | 1.13 |  |  |  |  |  |  |  |  |
| Fc1ccc(F)c(F)c1 [1,2,4 trifluorobenzene] | - | - | - | - | - |  |  |  |  |  |  |  |  |  |  |
| O=C(O)CCC(=O)O [Succinate] | - | - | - | - | - |  |  |  |  |  |  |  |  |  |  |
| CCCCCCC(=O)O [heptanoate] | + | - | - | - | - | 41 ± 2.1 |  |  |  |  |  |  |  |  |  |
| CC1(C)C2CCC(=O)C1C2 (stereo not shown) [nopinone] | - | - | - | - | - |  |  |  |  |  |  |  |  |  |  |
| C=CCCC(=O)O [4-pentenoic acid] | + | - | - | - | - | 100 ± 10.6 | 0.901 | induced the strongest response | induced the strongest cAMP responses at all doses |  |  |  |  |  |  |
| OC1CCCCCC1 [cycloheptanol] | - | - | - | - | - |  |  |  |  |  |  |  |  |  |  |
| N[C@@H](CCC(=O)O)C(=O)O [l-glutamate] | - | - | - | - | - |  |  |  |  |  |  |  |  |  |  |
| CCCC1CCOC(C)S1 (stereo not shown) [2-Methyl-4-propyl-1,3-oxathiane] | - | - | - | - | - |  |  |  |  |  |  |  |  |  |  |
| CCCCCOC(C)=O [amyl acetate] | - | - | - | - | - |  |  |  |  |  |  |  |  |  |  |
| Cn1c(=O)c2c(ncn2C)n(C)c1=O [caffeine, reference compound] | - | - | - | - | - |  |  |  |  |  |  |  |  |  |  |
| CC(C)(O)CCCC1=CCC(C=O)CC1 (stereo not shown) [Lyral] | - | - | - | - | - |  |  |  |  |  |  |  |  |  |  |
| C=CC(C)(CCC=C(C)C)OC(C)=O (stereo not shown) [Linalyl acetate] | - | - | - | - | - |  |  |  |  |  |  |  |  |  |  |
| O=C1CC2CC[C@H]1C2 [norcamphor] | - | - | - | - | - |  |  |  |  |  |  |  |  |  |  |
| C=CC(C)(O)CCC=C(C)CCC=C(C)C (mixture of isomers) [nerolidol] | - | - | - | - | - |  |  |  |  |  |  |  |  |  |  |
| [Na+].[Na+].[S-2] [Sodium Sulfide] |  |  |  |  |  |  |  |  |  | - | - | - | - | - |  |
| Cc1ccc(C)s1 [2,5-Dimethylthiophene] | - | - | - | - | - |  |  |  |  |  |  |  |  |  |  |
| O=C1CCCCCCCCCCCCCCO1 [omega-pentadecalactone] | - | - | - | - | - |  |  |  |  |  |  |  |  |  |  |
| O=C1CCCCC1 [cyclohexanone] | - | - | - | - | - |  |  |  |  |  |  |  |  |  |  |
| C=C[C@H](O)CCCCC [(R)-1-Octen-3-ol] | - | - | - | - | - |  |  |  |  |  |  |  |  |  |  |
| CCCCCCCC(=O)O [octanoic acid] | + | - | - | - | - | 20 ± 0.9 |  |  |  |  |  |  |  |  | responds |
| C=CC(=O)CCCCC [1-Octen-3-one] | - | - | - | - | - |  |  |  |  |  |  |  |  |  |  |
| CC(O)C(=O)O (stereo not shown) [lactic acid] | - | - | - | - | - |  |  |  |  |  |  |  |  |  |  |
| CCCCCCCO [1-Heptanol] | - | - | - | - | - |  |  |  |  |  |  |  |  |  |  |
| O=C1CCC(=O)CC1 [1,4-cyclohexanedione] | - | - | - | - | - |  |  |  |  |  |  |  |  |  |  |
